One may read the inhibition as the relative decrease from the control value, in per cent. In general, melting point refers to the temperature of the solid-liquid transition.

Molecules are shown by their SMILES.

From patent publication US9546158B2, “2,5-substituted pyrimidines” (Grünenthal GmbH, priority 2014, dated 2017) come the findings set out here.

Data set [1] has as its target T1, human PDE4B1 (Homo sapiens, UniProt Q07343).
T1 construct: host or cells: Sf9 cells
Briefly: cAMP HTRF assay to determine the activity of hPDE4B1. It is filed as biochemical. The conditions noted are these: test substrate concentration of 1 μM, read-out: Inhibition of PDE4B, Inhibition in %. How it is done:
cAMP HTRF® Assay to Determine the Activity of hPDE4B1
The inhibiting effect of the compounds on the enzyme activity of human PDE4B1 was measured by the quantification of 5′-adenosine monophosphate (5′-AMP), which is formed from 3′,5′-cyclic adenosine monophosphate (cAMP). Human recombinant enzyme, expressed in Sf9 cells, and the HTRF (homogeneous time-resolved fluorescence) detection method were used in the assay.
The test compound or water (control) was mixed with the human recombinant PDE4B1 enzyme (4.8 U) in a buffer consisting of 44.4 mM tris-HCl, 5.28 mM MgCl2, 2.64 mM DTT and 0.044% Tween 20 (pH 7.8). After adding the cAMP enzyme substrate (final concentration 40 nM), the mixture was incubated for 30 minutes at room temperature. Then a fluorescence acceptor (Dye2 marked with cAMP), a fluorescence donor (anti-cAMP antibody marked with a europium cryptate) and the non-specific phosphodiesterase inhibitor IBMX (3-isobutyl-1-methylxanthine; final concentration 1 mM) were added. After 60 minutes the fluorescence transfer, which correlates with the amount of remaining cAMP, was measured with a microplate reader (Rubystar, BMG) at λex=337 nm, λem=620 nm and λem=665 nm. The enzyme activity was calculated from the quotient formed from the measured signal at 665 nm and that at 620 nm. The result was expressed as the percentage inhibition of enzyme activity of the control (without PDE4 inhibitor). The enzyme was omitted for measurement of the basal control. IC50 values (IC50=concentration causing a half-maximal inhibition of control specific activity) were derived from dose response measurements with eight different concentrations (n=2; N=1-3).
Literature: N. Saldou et al., Comparison of recombinant human PDE4 isoforms: interaction with substrate and inhibitors, Cell. Signal. Vol. 10, No. 6, 427-440, 1998

Data set [2] deals with T1, human PDE4B1. In words: TR-FRET assay using the LANCE Ultra cAMP kit to determine the activity of hPDE4B1. It is filed as biochemical. Conditions: test substrate concentration of 10 μM, read-out: Inhibition of PDE4B, Inhibition in %. The text has this:
TR-FRET Assay Using the LANCE® Ultra cAMP Kit to Determine the Activity of hPDE4B1
The effects of the compounds on the activity of the human PDE4B1 was quantified by measuring the production of 5′AMP from cAMP using a human recombinant enzyme expressed in Sf9 cells and the LANCE® Ultra cAMP kit, a TR-FRET detection method from PerkinElmer. The human PDE4B1 enzyme was purchased from SignalChem Lifesciences (Catalog #P92-31BG, Lot #H296-2).
The test compound, reference compound or water (control) was mixed with the enzyme (0.96 U) in a reaction buffer containing 50 mM Tris-HCl, 50 mM MgCl2 and 5 mM DTT (pH 8.5). Thereafter, the reaction was initiated by addition of 500 nM cAMP (substrate) and the mixture was incubated for 30 minutes at room temperature. For control basal measurements, the enzyme was omitted from the reaction mixture. After 30 minutes, the reaction was stopped and diluted by a factor of 100 with the reaction buffer supplemented with 500 μM IBMX. The fluorescence donor (europium chelate-labeled cAMP) and the fluorescence acceptor (anti-cAMP antibody labeled with the ULight™ dye) were then added together with 500 μM IBMX to a 10 μl aliquot. After 60 minutes, the fluorescence transfer corresponding to the amount of residual cAMP was measured at λex=337 nm, λem=620 nm and λem=665 nm using a microplate reader (PHERAstar, BMG). The enzyme activity was determined by dividing the signal measured at 665 nm by that measured at 620 nm (ratio) multiplied by 10000. The results were expressed as percent inhibition of the control enzyme activity. IC50 values (IC50=concentration causing a half-maximal inhibition of control specific activity) were derived from dose response measurements with ten different concentrations (n=3; N=1-3).

T1 sequence (Q07343 whole entry): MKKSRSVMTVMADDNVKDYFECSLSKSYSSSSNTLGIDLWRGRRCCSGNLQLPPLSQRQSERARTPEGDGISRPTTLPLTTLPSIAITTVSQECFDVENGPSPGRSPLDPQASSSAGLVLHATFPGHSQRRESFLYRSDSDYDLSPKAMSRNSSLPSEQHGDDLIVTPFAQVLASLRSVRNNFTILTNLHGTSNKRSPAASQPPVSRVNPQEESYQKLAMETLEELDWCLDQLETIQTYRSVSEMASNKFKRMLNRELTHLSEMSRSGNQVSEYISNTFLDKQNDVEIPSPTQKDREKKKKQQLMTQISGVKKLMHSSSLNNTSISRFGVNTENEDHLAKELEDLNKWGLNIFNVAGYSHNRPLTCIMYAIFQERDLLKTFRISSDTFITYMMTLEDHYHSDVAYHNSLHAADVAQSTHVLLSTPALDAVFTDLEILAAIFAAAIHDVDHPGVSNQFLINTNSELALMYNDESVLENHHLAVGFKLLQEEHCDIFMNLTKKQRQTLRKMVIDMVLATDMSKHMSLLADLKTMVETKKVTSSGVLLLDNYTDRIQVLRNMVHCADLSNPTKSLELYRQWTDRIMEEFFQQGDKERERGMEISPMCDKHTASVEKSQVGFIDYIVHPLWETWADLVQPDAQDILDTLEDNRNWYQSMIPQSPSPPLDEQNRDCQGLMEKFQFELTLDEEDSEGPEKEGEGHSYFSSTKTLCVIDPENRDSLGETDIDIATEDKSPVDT

Take `O=C1CN(C(=O)c2ccc3c(C4CC4)nn(-c4ncc(-c5ccccc5)cn4)c3c2)CCN1` [Compound No. 15, 4-(3-Cyclopropyl-1-(5-phenylpyrimidin-2-yl)-1H-indazole-6-carbonyl)piperazin-2-one]: the melting point was 175 to 179 °C. Moreover, the inhibition at 1 µM on human PDE4B1 [1] came to 96%.
Regarding `O=C1CN(C(=O)c2ccc3c(C4CC4)nn(-c4ncc(-c5ccccc5F)cn4)c3c2)CCN1` [Compound No. 16, 4-(3-Cyclopropyl-1-(5-(2-fluorophenyl)pyrimidin-2-yl)-1H-indazole-6-carbonyl)piperazin-2-one], the melting point was in the range of 252 to 255 °C. Also, the inhibition at 1 µM on human PDE4B1 [1] stood at 99%.
`CN1CCN(C(=O)c2ccc3c(C4CC4)nn(-c4ncc(-c5ccccc5F)cn4)c3c2)CC1=O` [Compound No. 17, 4-(3-Cyclopropyl-1-(5-(2-fluorophenyl)pyrimidin-2-yl)-1H-indazole-6-carbonyl)-1-methylpiperazin-2-one] came in with a melting point of 217 to 221 °C. Besides, the inhibition at 1 µM at human PDE4B1 [1] came to 95%.
Taken in the same sequence, the figures for `O=C(c1cc2c(cn1)c(C1CC1)nn2-c1ncc(-c2ccccc2F)cn1)N1CCOCC1` [Compound No. 29, (3-Cyclopropyl-1-(5-(2-fluorophenyl)pyrimidin-2-yl)-1H-pyrazolo[4,3-c]pyridin-6-yl)(morpholino)methanone] were 232 to 235 °C and 73%.
On the same counts, the results for `O=C(c1ccc2c(C3CC3)nn(-c3ncc(-c4ccccn4)cn3)c2c1)N1CCOCC1` [Compound No. 30, (3-Cyclopropyl-1-(5-(pyridin-2-yl)pyrimidin-2-yl)-1H-indazol-6-yl)(morpholino)methanone] are 260 to 263 °C and 96%.
On the same counts, the results for `CC(C)(O)c1nn(-c2ncc(-c3ccccc3F)cn2)c2cc(C(=O)N3CCOCC3)ccc12` [Compound No. 31] are 235 to 237 °C and 102%.
Turning to `CCOc1ccc(F)c(-c2cnc(-n3nc(C4CC4)c4ccc(C(=O)N(C)CC(N)=O)cc43)nc2)c1` [Compound No. 50, N-(2-Amino-2-oxoethyl)-3-cyclopropyl-1-(5-(5-ethoxy-2-fluorophenyl)pyrimidin-2-yl)-N-methyl-1H-indazole-6-carboxamide], the melting point fell in the range of 228 to 231 °C. Also, the inhibition at 10 µM at human PDE4B1 [2] was 95%.
On the same counts, the results for `CCOc1ccc(F)c(-c2cnc(-n3nc(C4CC4)c4ccc(C(=O)N5CCOCC5)cc43)nc2)c1` [Compound No. 51, (3-Cyclopropyl-1-(5-(5-ethoxy-2-fluorophenyl)pyrimidin-2-yl)-1H-indazol-6-yl)(morpholino)methanone] are 155 to 158 °C and 103%.
Taken in the same sequence, the figures for `CC(O)c1ccc(F)c(-c2cnc(-n3nc(C4CC4)c4ccc(C(=O)N5CCOCC5)cc43)nc2)c1` (stereo not shown) [Compound No. 52, (3-Cyclopropyl-1-(5-(2-fluoro-5-(1-hydroxyethyl)phenyl)pyrimidin-2-yl)-1H-indazol-6-yl)(morpholino)methanone] were 256 to 260 °C and 117%.
As for `CC(O)c1ccc(F)c(-c2cnc(-n3nc(C4CC4)c4ccc(C(=O)N(C)CC(N)=O)cc43)nc2)c1` (stereo not shown) [Compound No. 53, N-(2-Amino-2-oxoethyl)-3-cyclopropyl-1-(5-(2-fluoro-5-(1-hydroxyethyl)phenyl)pyrimidin-2-yl)-N-methyl-1H-indazole-6-carboxamide], the melting point fell in the range of 248 to 252 °C. The inhibition at 10 µM on human PDE4B1 [2] turned out to be 101%.
Taken in the same sequence, the figures for `CC(C)(O)c1ccc(F)c(-c2cnc(-n3nc(C4CC4)c4ccc(C(=O)N5CCOCC5)cc43)nc2)c1` [Compound No. 54, (3-Cyclopropyl-1-(5-(2-fluoro-5-(2-hydroxypropan-2-yl)phenyl)pyrimidin-2-yl)-1H-indazol-6-yl)(morpholino)methanone] were 211 to 215 °C and 107%.
Molecule `CN(CC(N)=O)C(=O)c1ccc2c(C3CC3)nn(-c3ncc(-c4cc(C(C)(C)O)ccc4F)cn3)c2c1` [Compound No. 55, N-(2-Amino-2-oxoethyl)-3-cyclopropyl-1-(5-(2-fluoro-5-(2-hydroxypropan-2-yl)phenyl)pyrimidin-2-yl)-N-methyl-1H-indazole-6-carboxamide] showed a melting point of 177 to 180 °C. For the same molecule, the inhibition at 10 µM on human PDE4B1 [2] is 115%.
Consider `C[S+]([O-])c1ccc(F)c(-c2cnc(-n3nc(C4CC4)c4ccc(C(=O)N5CCOCC5)cc43)nc2)c1` (stereo not shown) [Compound No. 56, (3-Cyclopropyl-1-(5-(2-fluoro-5-(methylsulfinyl)phenyl)pyrimidin-2-yl)-1H-indazol-6-yl)(morpholino)methanone], for which the melting point fell in the range of 243 to 247 °C. The inhibition at 10 µM on human PDE4B1 [2] came to 106%.
On the same counts, the results for `CN(CC(N)=O)C(=O)c1ccc2c(C3CC3)nn(-c3ncc(-c4cc([S+](C)[O-])ccc4F)cn3)c2c1` (stereo not shown) [Compound No. 57] are 274 to 277 °C and 120%.
Taken in the same sequence, the figures for `CS(=O)(=O)c1ccc(F)c(-c2cnc(-n3nc(C4CC4)c4ccc(C(=O)N5CCOCC5)cc43)nc2)c1` [Compound No. 58, (3-Cyclopropyl-1-(5-(2-fluoro-5-(methylsulfonyl)phenyl)pyrimidin-2-yl)-1H-indazol-6-yl)(morpholino)methanone] were 276 to 280 °C and 105%.
Taken in the same sequence, the figures for `CN(CC(N)=O)C(=O)c1ccc2c(C3CC3)nn(-c3ncc(-c4cc(S(C)(=O)=O)ccc4F)cn3)c2c1` [Compound No. 59, N-(2-Amino-2-oxoethyl)-3-cyclopropyl-1-(5-(2-fluoro-5-(methylsulfonyl)phenyl)pyrimidin-2-yl)-N-methyl-1H-indazole-6-carboxamide] were 311 to 315 °C and 96%.
The molecule `CCOc1ccc(F)c(-c2cnc(-n3nc(C)c4ccc(C(=O)N(C)CC(N)=O)cc43)nc2)c1` [Compound No. 60, N-(2-Amino-2-oxoethyl)-1-(5-(5-ethoxy-2-fluorophenyl)pyrimidin-2-yl)-N,3-dimethyl-1H-indazole-6-carboxamide] returned a melting point of 254 to 257 °C. In addition, at human PDE4B1 [2], the inhibition at 10 µM was determined as 100%.
On the same counts, the results for `Cc1nn(-c2ncc(-c3cc(C(C)O)ccc3F)cn2)c2cc(C(=O)N(C)CC(N)=O)ccc12` (stereo not shown) [Compound No. 61, N-(2-Amino-2-oxoethyl)-1-(5-(2-fluoro-5-(1-hydroxyethyl)phenyl)pyrimidin-2-yl)-N,3-dimethyl-1H-indazole-6-carboxamide] are 191 to 195 °C and 103%.
`Cc1nn(-c2ncc(-c3cc(C(C)(C)O)ccc3F)cn2)c2cc(C(=O)N(C)CC(N)=O)ccc12` [Compound No. 62, N-(2-Amino-2-oxoethyl)-1-(5-(2-fluoro-5-(2-hydroxypropan-2-yl)phenyl)pyrimidin-2-yl)-N,3-dimethyl-1H-indazole-6-carboxamide]: the melting point was 187 to 190 °C. The inhibition at 10 µM at human PDE4B1 [2] amounted to 108%.
Taken in the same sequence, the figures for `Cc1nn(-c2ncc(-c3cc(S(C)(=O)=O)ccc3F)cn2)c2cc(C(=O)N(C)CC(N)=O)ccc12` [Compound No. 63, N-(2-Amino-2-oxoethyl)-1-(5-(2-fluoro-5-(methylsulfonyl)phenyl)pyrimidin-2-yl)-N,3-dimethyl-1H-indazole-6-carboxamide] were 255 to 259 °C and 75%.
